# What was measured:
# [1] = tested on: kidney or kidney-pancreas transplant recipients; test: Retrospective analysis of renal function (serial serum creatinine) in calcitriol-treated transplant patients; type: in vivo, human
# Source text: Methodology-retrospective analysis: The University of Wisconsin transplant database was screened to identify any kidney and/or kidney-pancreas transplant recipient who received 1,25-dihydroxyvitamin D3 (calcitriol)peri-post-transplant. Clinical and demographic variables were abstracted from the database. Those patients with adequate follow-up data were included in the analysis (≧1year follow-up data following the initiation of calcitriol). Demographic variables included race, age, and nay history of parathyroidectomy as these patients would likely be receiving calcitriol at time of transplantation. The effect of calcitriol treatment on renal function was analyzed using general linear mixed modeling of the change in slope of renal function prior to and following the start of calcitriol therapy. […] Adverse events and hypercalcemia were noted by identifiers in the database and by serum calcium levels as recorded in the database. Hypercalcemia was defined as a serum calcium >10.5 mg/dl. Data assessment—Demographics: Calcitriol-treatment patients were divided into: Group 1: patients who initiated calcitriol therapy<one year following transplantation, Group 2: patients who remained on or initiated calcitriol therapy within two weeks of transplantation, Data assessment—outcomes for Group 1 patients: Renal function was determined by assessing serial serum creatinine values. This serum measure is a standard and accepted measure of renal function. The start of calcitriol therapy was defined as day 0. Time prior to initiation of calcitriol therapy was designated by a negative value. Mean serum creatinine levels appeared to increase in Group 1 patients (indicative of declining renal function) until the time of calcitriol therapy was initiated (Table 3).
# [2] = Effect of calcitriol on CsA and FK506 serum levels and dosages in transplant patients; type: in vivo, human
# Source text: Methodology-retrospective analysis: The University of Wisconsin transplant database was screened to identify any kidney and/or kidney-pancreas transplant recipient who received 1,25-dihydroxyvitamin D3 (calcitriol)peri-post-transplant. Clinical and demographic variables were abstracted from the database. Those patients with adequate follow-up data were included in the analysis (≧1year follow-up data following the initiation of calcitriol). Demographic variables included race, age, and nay history of parathyroidectomy as these patients would likely be receiving calcitriol at time of transplantation. The effect of calcitriol treatment on renal function was analyzed using general linear mixed modeling of the change in slope of renal function prior to and following the start of calcitriol therapy. […] Adverse events and hypercalcemia were noted by identifiers in the database and by serum calcium levels as recorded in the database. Hypercalcemia was defined as a serum calcium >10.5 mg/dl. […] Both of these agents have beneficial effects in prolonging allograft function by altering the ability for activated T cells to produce interleukin-2 (IL-2). However, both of these agents are also associated with drug-related nephrotoxicity that is manifested by characteristic histologic changes in the allograft, e.g. tubulointerstitial fibrosis, and loss of allograft function long-term.
# [3] = tested on: Smad 7 mRNA; test: Semi-quantitative RT-PCR of renal grafts, Smad 7 mRNA; type: in vivo, rat; conditions: vs controls
# Experimental: Semi-quantitative Reverse transcription polymerace chain reaction (RT-PCR): Following graft harvest a […] containing both cortex and medulla was snap frozen in liquid nitrogen. Semi-quantitative RT-PCR was performed as described. Little et al. Transplant Int. 12:393-401, 1999. Briefly, samples were homogenized then total RNA extracted with RNAzol B (Tel Test, Inc., Friendswood, Tex.) and reversed transcribed to cDNA according to manufacturer=s instructions (Superscript, Gibco BRL). PCR was performed over the linear range of amplification for both the gene of interest, e.g. TGFβ-1, and the ribosomal protein S26 as a control housekeeping gene. PCR conditions were chosen such that both products were amplified with similar efficiency. The following cycle parameters were employed: denaturing, 94° C. for 60 seconds; annealing, 61° C. for 60 seconds; and extension, 72° C. for 60 seconds. The amount of product was quantified using a phosphoimager (Storm 80) following gel electrophoresis and Vista green detection.
# [4] = tested on: Smad 2 protein; test: Western blot of renal graft lysates, Smad 2 protein; type: in vivo, rat; conditions: vs allogeneic untreated controls
# Source text: Renal lysates were subjected to SDS-PAGE and transferred to nitrocellulose membranes. The membranes were probed with specific anti-Smad antibodies and appropriated HRP-conjugated secondary antibodies. Signal was detected with chemilumensnce. Following exposure, x-ray films were scanned and the amount of expression compared to that of tubulin as an internal control using Scion Image software. FIG. 4 (A) describes R-Smad expression. FIG. 4 (B) described I-Smad expression.
# Western Blot Analysis: A portion of the snap frozen graft containing both cortex and medulla was ground with a mortar and pestle. For each 100 mg of tissue, the sample was resuspened in 400 ul of lysis buffer (10 mM Tris base, 150 mM NaCl, pH 8.0) containing protease inhibitors (P2714 1:1000. Sigma Chemical Co., St. Louis, Mo.) and homogenized (PowerGen 125, 1 minute). Triton X100 was then added to 1% and the sample place on ice, for 30 minutes. The solubilized sample was then spun at 4° C. for 15 minutes at 15,000×G. The supernatant was collected and stored at −80° C. Sample protein concentrations were determined using the Micro BCA assay (Pierce Chemical Co., Rockford, Ill.) according to manufacturer=s instructions, except that the assay was performed in half area plates combining 35 μl sample with 70 µl of reagent. […]
smiles,measurement,setting,value
"C=C1/C(=C\C=C2/CCC[C@]3(C)[C@@H]([C@H](C)CCCC(C)(C)O)CC[C@@H]23)C[C@@H](O)C[C@@H]1O [calcitriol, 1,25-dihydroxyvitamin D3]",Graft failures (loss of the transplant),[1]; Group 1 (26 patients),six
same,Serum creatinine levels following initiation of therapy,[1]; Group 1 patients,stabilized
same,Mean serum creatinine,"[1]; Group 1 patients, day 100 after start of calcitriol therapy",2.54 mg/dL
same,Mean serum creatinine,"[1]; Group 1 patients, day 200 after start of calcitriol therapy",2.44 mg/dL
same,Mean serum creatinine,"[1]; Group 1 patients, day 300 after start of calcitriol therapy",2.50 mg/dL
same,Mean serum creatinine,"[1]; Group 1 patients, day 400 after start of calcitriol therapy",2.27 mg/dL
same,Mean serum creatinine,"[1]; Group 1 patients, day 500 after start of calcitriol therapy",2.37 mg/dL
same,Creatinine trend (slope) after 300 days of therapy,"[1]; Group 1 patients, repeated measures analysis of slopes",creatinine was decreasing evidenced by a negative slope
same,Difference (change in slope of serum creatinine over time),"[1]; Group 1 patients, treatment day +100, negative = decreasing slope, improved renal function",−0.0050
same,Difference (change in slope of serum creatinine over time),"[1]; Group 1 patients, treatment day +200",−0.0046
same,Difference (change in slope of serum creatinine over time),"[1]; Group 1 patients, treatment day +300",−0.0080
same,Difference (change in slope of serum creatinine over time),"[1]; Group 1 patients, treatment day +400",−0.0085
same,Difference (change in slope of serum creatinine over time),"[1]; Group 1 patients, treatment day +500",−0.0078
same,Graft failures,[1]; Group 2 (22 patients),two
same,Analysis of interval slopes of serum creatinine,[1]; Group 2 patients,no interview slopes significantly different from 0
same,Mean serum creatinine,"[1]; Group 2 patients (table title prints Group 1), day 100 of calcitriol",1.61 mg/dL
same,Mean serum creatinine,"[1]; Group 2 patients (table title prints Group 1), day 200 of calcitriol",1.79 mg/dL
same,Mean serum creatinine,"[1]; Group 2 patients (table title prints Group 1), day 300 of calcitriol",1.70 mg/dL
same,Mean serum creatinine,"[1]; Group 2 patients (table title prints Group 1), day 400 of calcitriol",1.62 mg/dL
same,Mean serum creatinine,"[1]; Group 2 patients (table title prints Group 1), day 500 of calcitriol",1.82 mg/dL
same,Mean serum creatinine levels over time,"[1]; Group 2 patients, first 600 days following initiation of calcitriol",remained stable
same,Effect on CsA or FK506 dosages or serum drug levels,[2]; combined analysis of all Group 1 and Group 2 patients,no significant effect
same,Trends in mean CsA levels or variability in CsA levels,[2]; seven of the 26 Group 1 patients with serial CsA levels,No trends
same,Smad 7 mRNA levels,[3],no significant change
same,Decrease in Smad 2 protein levels,[4]; 500 ng/rat/day (data not shown),208 fold
same,Decrease in Smad 2 protein levels,"[4]; 1000 ng/rat/day, p=0.04",516 fold

# Source: patent US20080021002A1, “VITAMIN D COMPOUNDS USED TO STABILIZE KIDNEY TRANSPLANTS” (priority 2000, published 2008)
